In one data set the test system is Male Wistar rats. The data set is described as follows: Sucrose preference test (chronic mild stress model, CMS). The data set is classed as in vivo, rat. Conditions: for effect on sucrose intakes in control animals, compared to vehicle: control rats; for effect on sucrose intakes in control animals, compared to vehicle / effect on sucrose consumption in stressed animals, compared to vehicle: daily IP for five weeks, imipramine 10 mg/kg, vortioxetine 10 mg/kg, nalmefene 1 mg/kg, 1% sucrose solution; for effect on sucrose consumption in stressed animals, compared to vehicle: rats exposed to chronic mild stress; for weeks of treatment after which increase in sucrose intakes reached statistical significance versus Week 0 / overall effect in the CMS model (conclusion): stressed animals; for weeks of treatment after which increase in sucrose intakes reached statistical significance versus Week 0: daily IP; for overall effect in the CMS model (conclusion): five weeks of treatment. An excerpt:
Rodents inherently have an interest in sweet foods or liquids. Exposure to stressfull conditions reduces the interest for sweet foods or solutions, indicating a reduced sensitivity to rewards. This can be assessed for example in a sucrose preference test, where the stress-induced reduction of intake of a sucrose solution is used as a measure of anhedonia (reduces sensitivity to rewards). This stress-induced reduction of sucrose intake in the rat is a well-established animal model of anhedonia (Nielsen, Arnt and Sánchez. Intracranial self-stimulation and sucrose intake differ as hedonic measures following chronic mild stress: interstrain and interindividual differences. Behav. Brain. Res. (2000), 107 (1-2): 21-33).
Male Wistar rats (Charles River, Germany) were brought into the laboratory one month before the start of the experiment. Except as described below, the animals were singly housed with food and water freely available, and were maintained on a 12-h light/dark cycle (lights on at 08.00) and in a constant temperature (22±2° C.) and humidity (50±5%) conditions. All procedures used in this study are conformed to the rules and principles of the 86/609/EEC Directive, and were approved by the Local Bioethical Committee at the Institute of Pharmacology, Polish Academy of Sciences, Krakow, Poland.
After a period of 3 weeks of adaptation to laboratory and housing conditions, the animals were trained to consume a 1% sucrose solution; training consisted of nine 1 h baseline tests in which sucrose was presented, in the home cage, following 14 h food and water deprivation. The sucrose intake was measured by weighing pre-weighed bottles containing the sucrose solution, at the end of the test. Subsequently, sucrose consumption was monitored, under similar conditions, at weekly intervals throughout the whole experiment.
On the basis of their sucrose intakes in the final baseline test, the animals were divided into two matched groups. One group of animals was subjected to the chronic mild stress procedure for a period of 8 consecutive weeks. Each week of stress regime consisted of: two periods of food or water deprivation, two periods of 45 degree cage tilt, two periods of intermittent illumination (lights on and off every 2 h), two periods of soiled cage (250 ml water in sawdust bedding), one period of paired housing, two periods of low intensity stroboscopic illumination (150 flashes/min), and three periods of no stress. All stressors were 10-14 h of duration and were applied individually and continuously, day and night. […] They were deprived of food and water for 14 h preceding each sucrose test, but otherwise food and water were freely available in the home cage.
(§1) On the basis of their sucrose intakes following 2 weeks of initial stress, both stressed and control groups were each divided further into matched subgroups (n=8), and for subsequent five weeks they received daily IP administration of vehicle (0.9% saline, 1 ml/kg), Vortioxetine (10 mg/kg), Nalmefene (1 mg/kg), joint injections of Vortioxetine (10 mg/kg) and Nalmefene (1 mg/kg) or imipramine HCl (10 mg/kg) as the reference treatment. The volume of all injections was 1 ml/kg. The drugs were administered at approx. 10.00 and the weekly sucrose tests were carried out 24 h following the last drug injections. After five weeks all treatments were terminated and one additional sucrose test was carried out following one week of withdrawal. Stress was continued throughout the entire period of treatment and withdrawal.
The Fisher's LSD test was used for post-hoc comparisons of means.

A short description of data set [1]: Body weights in the CMS study. The procedure:
as §1

A further data set concerns the target κ-opioid receptors (Homo sapiens, UniProt P41145). Conditions: in vitro studies; cited from earlier work.
For the next data set, the target named is μ-opioid receptors (Homo sapiens, UniProt P35372). Conditions: in vitro studies; cited from earlier work.
μ-opioid receptors, sequence (P35372 whole entry): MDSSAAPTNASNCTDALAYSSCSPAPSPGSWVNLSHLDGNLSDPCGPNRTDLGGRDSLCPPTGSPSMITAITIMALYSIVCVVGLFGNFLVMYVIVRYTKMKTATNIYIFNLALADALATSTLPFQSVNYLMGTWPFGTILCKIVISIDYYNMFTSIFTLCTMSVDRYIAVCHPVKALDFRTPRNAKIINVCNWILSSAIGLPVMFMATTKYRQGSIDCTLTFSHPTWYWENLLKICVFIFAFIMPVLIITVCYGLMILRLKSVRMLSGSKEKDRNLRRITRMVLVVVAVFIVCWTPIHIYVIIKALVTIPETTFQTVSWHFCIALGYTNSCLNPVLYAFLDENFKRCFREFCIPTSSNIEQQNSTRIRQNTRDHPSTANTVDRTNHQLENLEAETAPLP
A further data set addresses δ-opioid receptors (Homo sapiens, UniProt P41143). To be noted: in vitro studies; cited from earlier work.

Each structure is given as a SMILES string. Structures can show the parent of a compound that is named as a salt.

κ-opioid receptors, sequence (P41145 whole entry): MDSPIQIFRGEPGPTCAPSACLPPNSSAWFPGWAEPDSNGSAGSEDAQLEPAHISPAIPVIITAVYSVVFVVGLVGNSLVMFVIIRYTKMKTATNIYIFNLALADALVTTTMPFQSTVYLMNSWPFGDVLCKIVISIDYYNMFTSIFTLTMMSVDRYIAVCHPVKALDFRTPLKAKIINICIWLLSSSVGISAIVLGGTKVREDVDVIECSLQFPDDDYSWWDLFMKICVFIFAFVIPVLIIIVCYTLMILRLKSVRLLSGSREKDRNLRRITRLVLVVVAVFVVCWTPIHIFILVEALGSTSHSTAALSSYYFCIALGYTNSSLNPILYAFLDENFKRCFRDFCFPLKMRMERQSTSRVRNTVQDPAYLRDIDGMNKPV
δ-opioid receptors, sequence (P41143 whole entry): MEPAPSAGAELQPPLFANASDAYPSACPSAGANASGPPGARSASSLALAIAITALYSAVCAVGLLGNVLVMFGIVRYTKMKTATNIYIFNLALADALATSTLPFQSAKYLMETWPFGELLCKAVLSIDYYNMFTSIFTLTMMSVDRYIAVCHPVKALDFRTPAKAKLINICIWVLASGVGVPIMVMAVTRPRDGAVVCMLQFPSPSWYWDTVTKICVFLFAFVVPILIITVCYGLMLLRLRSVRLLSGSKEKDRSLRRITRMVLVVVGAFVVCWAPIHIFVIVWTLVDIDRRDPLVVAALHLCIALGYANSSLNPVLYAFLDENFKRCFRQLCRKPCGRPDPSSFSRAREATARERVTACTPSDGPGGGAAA

`CN(C)CCCN1c2ccccc2CCc2ccccc21` [Imipramine, imipramine HCl]: in the data set with Male Wistar rats, the “effect on sucrose intakes in control animals, compared to vehicle” value is listed as “no significant effect”; the “effect on sucrose consumption in stressed animals, compared to vehicle” value is “gradually increased”; the “weeks of treatment after which increase in sucrose intakes reached statistical significance versus Week 0” value is on record as “three”; the “overall effect in the CMS model (conclusion)” value (“overall effect” for short) is given as “fully reversed”. In data set [1] (control rats, daily IP), the “Body weights after five weeks of treatment (means ± SEM), Controls” value (shortened to “Body weights … (means ± SEM), Controls”) came out at 350 ± 7 g. Also, the “effect on body weight compared to vehicle-treated group” value in data set [1] (rat, in vivo) is “decreased”. Further, the “Body weights after five weeks of treatment (means ± SEM), Stressed” value (“Body weights … (means ± SEM), Stressed” below) in data set [1] (stressed rats, daily IP) came to 326 ± 7 g.

Consider `C=C1CC[C@@]2(O)[C@H]3Cc4ccc(O)c5c4[C@@]2(CCN3CC2CC2)[C@H]1O5` [Nalmefene, 17-(cyclopropylmethyl)-4,5-alpha-epoxy-6-methylenemorphinan-3,14-diol], for which, in the data set with Male Wistar rats, the “effect on sucrose intakes in control animals, compared to vehicle” value is reported as “no effect”; the “effect on sucrose consumption in stressed animals, compared to vehicle” value is reported as “gradually increased”; the “weeks of treatment after which increase in sucrose intakes reached statistical significance versus Week 0” value was “four”; the “overall effect” value was “effective”. Further, in data set [1] (control and stressed animals, decreases p<0.05 in controls, NS in stressed), the “effect on body weight compared to vehicle-treated group” value is “did not affect”. Also, the “Body weights … (means ± SEM), Controls” value in data set [1] (control rats, daily IP) was determined as 371 ± 9 g. The “Body weights … (means ± SEM), Stressed” value in data set [1] (stressed rats, daily IP) was determined as 355 ± 11 g. Moreover, at κ-opioid receptors, the “functional activity at the κ receptor” value is recorded as “partial agonist activity”. Further, the “functional activity at the μ receptor” value at μ-opioid receptors was “antagonist activity”. Also, the “functional activity at the δ receptor” value at δ-opioid receptors is “antagonist activity”.

As to `Cc1ccc(Sc2ccccc2N2CCNCC2)c(C)c1` [Vortioxetine, 1-[2-(2,4-dimethyl-phenylsulfanyl)-phenyl]-piperazine], in the data set on Male Wistar rats, the “effect on sucrose intakes in control animals, compared to vehicle” value is “no significant effect”; the “effect on sucrose consumption in stressed animals, compared to vehicle” value is “no significant effect”; the “overall effect” value is on record as “not effective”. For the same compound, the “effect on body weight compared to vehicle-treated group” value in data set [1] (rat, in vivo) is given as “decreased”. In addition, in data set [1] (rat, in vivo, ip), the “Body weights … (means ± SEM), Controls” value is 348 ± 9 g and the “Body weights … (means ± SEM), Stressed” value stood at 328 ± 9 g.

The record behind these values is patent US10376506B2, “Use of an opioid receptor antagonist with kappa-activity and vortioxetine for treatment of depressive disorder with melancholic features” (H. Lundbeck A/S, priority 2013, dated 2019).
